# Measurements reported in ChEMBL document CHEMBL5154925, “Design and Optimization of Thienopyrimidine Derivatives as Potent and Selective PI3Kδ Inhibitors for the Treatment of B-Cell Malignancies” (J Med Chem, 2022).
# How the values were obtained:
# [1] = molecular target: Phosphatidylinositol 4,5-bisphosphate 3-kinase catalytic subunit alpha isoform (Homo sapiens, UniProt P42336); assay: Inhibition of PI3Kalpha (unknown origin) using PIP2 as substrate measured after 1 hr in presence of ATP by ADP-glo luminescence assay
# Chain of Phosphatidylinositol 4,5-bisphosphate 3-kinase catalytic subunit alpha isoform (Homo sapiens, UniProt P42336) (P42336 whole entry, canonical isoform): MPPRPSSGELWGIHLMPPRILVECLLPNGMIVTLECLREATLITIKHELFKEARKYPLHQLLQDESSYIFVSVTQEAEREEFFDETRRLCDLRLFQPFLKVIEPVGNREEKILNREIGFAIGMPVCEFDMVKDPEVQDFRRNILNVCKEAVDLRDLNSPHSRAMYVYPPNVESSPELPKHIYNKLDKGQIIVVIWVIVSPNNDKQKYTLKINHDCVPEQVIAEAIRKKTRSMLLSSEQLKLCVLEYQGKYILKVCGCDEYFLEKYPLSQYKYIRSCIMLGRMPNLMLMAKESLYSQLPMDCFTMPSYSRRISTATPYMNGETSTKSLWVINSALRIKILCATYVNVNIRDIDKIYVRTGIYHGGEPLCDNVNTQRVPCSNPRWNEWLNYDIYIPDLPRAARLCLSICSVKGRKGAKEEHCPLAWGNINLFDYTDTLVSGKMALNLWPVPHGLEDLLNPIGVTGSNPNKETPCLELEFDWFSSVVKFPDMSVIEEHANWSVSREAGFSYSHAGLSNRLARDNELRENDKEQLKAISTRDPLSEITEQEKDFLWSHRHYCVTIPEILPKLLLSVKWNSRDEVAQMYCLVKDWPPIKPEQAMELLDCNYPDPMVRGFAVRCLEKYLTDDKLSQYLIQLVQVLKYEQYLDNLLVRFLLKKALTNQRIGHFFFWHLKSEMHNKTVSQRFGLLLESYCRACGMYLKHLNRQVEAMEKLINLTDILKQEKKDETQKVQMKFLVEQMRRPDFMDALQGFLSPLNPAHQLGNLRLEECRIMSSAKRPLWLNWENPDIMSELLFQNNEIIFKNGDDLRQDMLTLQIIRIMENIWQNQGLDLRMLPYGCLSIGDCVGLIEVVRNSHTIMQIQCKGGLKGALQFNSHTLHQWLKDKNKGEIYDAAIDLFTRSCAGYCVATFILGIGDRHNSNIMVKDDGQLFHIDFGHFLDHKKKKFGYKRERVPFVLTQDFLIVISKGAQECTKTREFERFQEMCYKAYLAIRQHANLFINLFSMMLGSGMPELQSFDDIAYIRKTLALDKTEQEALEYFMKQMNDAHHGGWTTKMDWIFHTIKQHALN
# [2] = molecular target: T1, Phosphatidylinositol 4,5-bisphosphate 3-kinase catalytic subunit delta isoform (Homo sapiens, UniProt O00329); assay: Inhibition of PI3Kdelta (unknown origin) using PIP2 as substrate measured after 1 hr in presence of ATP by ADP-glo luminescence assay
# T1 sequence (O00329 whole entry): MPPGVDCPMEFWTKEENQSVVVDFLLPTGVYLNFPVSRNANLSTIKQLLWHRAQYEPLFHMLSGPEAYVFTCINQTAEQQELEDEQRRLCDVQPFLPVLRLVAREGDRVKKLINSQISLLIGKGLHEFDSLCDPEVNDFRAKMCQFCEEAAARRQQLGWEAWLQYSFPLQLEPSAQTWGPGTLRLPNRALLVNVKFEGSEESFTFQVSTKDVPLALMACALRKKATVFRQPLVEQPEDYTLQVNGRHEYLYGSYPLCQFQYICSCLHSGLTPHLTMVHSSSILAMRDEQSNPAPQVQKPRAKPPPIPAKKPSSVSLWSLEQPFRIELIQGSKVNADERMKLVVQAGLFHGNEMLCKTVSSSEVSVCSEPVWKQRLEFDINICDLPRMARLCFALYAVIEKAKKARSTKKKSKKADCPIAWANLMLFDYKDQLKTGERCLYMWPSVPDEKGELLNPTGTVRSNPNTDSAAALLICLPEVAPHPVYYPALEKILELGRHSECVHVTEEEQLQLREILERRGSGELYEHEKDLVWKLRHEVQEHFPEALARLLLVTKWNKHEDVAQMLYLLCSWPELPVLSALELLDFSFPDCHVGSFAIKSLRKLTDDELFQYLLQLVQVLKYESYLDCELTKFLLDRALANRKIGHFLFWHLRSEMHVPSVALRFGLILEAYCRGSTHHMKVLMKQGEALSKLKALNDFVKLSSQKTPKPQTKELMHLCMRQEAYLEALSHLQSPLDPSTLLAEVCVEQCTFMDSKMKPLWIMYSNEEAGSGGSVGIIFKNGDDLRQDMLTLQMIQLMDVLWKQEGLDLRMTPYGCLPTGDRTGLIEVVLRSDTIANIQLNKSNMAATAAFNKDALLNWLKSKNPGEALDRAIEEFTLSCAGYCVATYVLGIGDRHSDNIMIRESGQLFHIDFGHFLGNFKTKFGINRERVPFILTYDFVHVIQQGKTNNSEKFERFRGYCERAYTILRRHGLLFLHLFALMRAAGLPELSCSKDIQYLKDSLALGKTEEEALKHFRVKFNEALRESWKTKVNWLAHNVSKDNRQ
# [3] = Microsomal stability in mouse liver microsomes assessed as intrinsic clearance; type: ADME, Microsome; conditions: read-out: CLH
# [4] = molecular target: T2, Phosphatidylinositol 4,5-bisphosphate 3-kinase catalytic subunit beta isoform (Homo sapiens, UniProt P42338); assay: Inhibition of PI3Kbeta (unknown origin) using PIP2 as substrate measured after 1 hr in presence of ATP by ADP-glo luminescence assay
# T2 sequence (P42338 whole entry, canonical isoform): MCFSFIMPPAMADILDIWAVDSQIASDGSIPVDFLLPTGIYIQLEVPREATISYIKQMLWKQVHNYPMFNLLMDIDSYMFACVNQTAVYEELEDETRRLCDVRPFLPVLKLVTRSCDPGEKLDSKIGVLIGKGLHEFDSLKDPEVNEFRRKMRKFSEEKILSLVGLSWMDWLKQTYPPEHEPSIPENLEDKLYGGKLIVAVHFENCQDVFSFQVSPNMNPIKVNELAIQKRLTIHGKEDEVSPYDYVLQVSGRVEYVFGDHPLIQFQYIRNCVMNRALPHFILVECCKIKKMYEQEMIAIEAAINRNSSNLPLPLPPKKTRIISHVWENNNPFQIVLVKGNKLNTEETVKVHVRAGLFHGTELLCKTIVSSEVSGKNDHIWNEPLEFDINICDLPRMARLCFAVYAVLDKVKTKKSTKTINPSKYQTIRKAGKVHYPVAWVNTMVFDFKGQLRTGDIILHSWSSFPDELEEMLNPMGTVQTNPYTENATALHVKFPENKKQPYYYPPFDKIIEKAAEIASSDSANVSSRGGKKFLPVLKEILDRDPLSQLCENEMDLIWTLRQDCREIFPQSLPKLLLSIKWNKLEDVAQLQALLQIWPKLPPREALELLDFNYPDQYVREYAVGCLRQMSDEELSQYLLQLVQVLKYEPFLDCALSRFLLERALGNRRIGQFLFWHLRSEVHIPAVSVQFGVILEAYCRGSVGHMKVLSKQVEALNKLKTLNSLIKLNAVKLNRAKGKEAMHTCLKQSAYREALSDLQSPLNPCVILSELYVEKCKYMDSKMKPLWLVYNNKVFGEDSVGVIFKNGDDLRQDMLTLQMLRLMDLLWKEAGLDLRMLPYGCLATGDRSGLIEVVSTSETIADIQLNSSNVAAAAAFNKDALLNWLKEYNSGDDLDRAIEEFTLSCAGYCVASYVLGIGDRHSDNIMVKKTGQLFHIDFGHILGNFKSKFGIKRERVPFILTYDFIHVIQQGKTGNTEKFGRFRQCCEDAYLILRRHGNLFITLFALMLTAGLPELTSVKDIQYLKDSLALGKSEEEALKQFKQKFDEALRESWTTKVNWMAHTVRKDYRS
# [5] = molecular target: Phosphatidylinositol 4,5-bisphosphate 3-kinase catalytic subunit gamma isoform (Homo sapiens, UniProt P48736); assay: Inhibition of PI3Kgamma (unknown origin) using PIP2 as substrate measured after 1 hr in presence of ATP by ADP-glo luminescence assay
# Chain of Phosphatidylinositol 4,5-bisphosphate 3-kinase catalytic subunit gamma isoform (Homo sapiens, UniProt P48736) (P48736 whole entry, canonical isoform): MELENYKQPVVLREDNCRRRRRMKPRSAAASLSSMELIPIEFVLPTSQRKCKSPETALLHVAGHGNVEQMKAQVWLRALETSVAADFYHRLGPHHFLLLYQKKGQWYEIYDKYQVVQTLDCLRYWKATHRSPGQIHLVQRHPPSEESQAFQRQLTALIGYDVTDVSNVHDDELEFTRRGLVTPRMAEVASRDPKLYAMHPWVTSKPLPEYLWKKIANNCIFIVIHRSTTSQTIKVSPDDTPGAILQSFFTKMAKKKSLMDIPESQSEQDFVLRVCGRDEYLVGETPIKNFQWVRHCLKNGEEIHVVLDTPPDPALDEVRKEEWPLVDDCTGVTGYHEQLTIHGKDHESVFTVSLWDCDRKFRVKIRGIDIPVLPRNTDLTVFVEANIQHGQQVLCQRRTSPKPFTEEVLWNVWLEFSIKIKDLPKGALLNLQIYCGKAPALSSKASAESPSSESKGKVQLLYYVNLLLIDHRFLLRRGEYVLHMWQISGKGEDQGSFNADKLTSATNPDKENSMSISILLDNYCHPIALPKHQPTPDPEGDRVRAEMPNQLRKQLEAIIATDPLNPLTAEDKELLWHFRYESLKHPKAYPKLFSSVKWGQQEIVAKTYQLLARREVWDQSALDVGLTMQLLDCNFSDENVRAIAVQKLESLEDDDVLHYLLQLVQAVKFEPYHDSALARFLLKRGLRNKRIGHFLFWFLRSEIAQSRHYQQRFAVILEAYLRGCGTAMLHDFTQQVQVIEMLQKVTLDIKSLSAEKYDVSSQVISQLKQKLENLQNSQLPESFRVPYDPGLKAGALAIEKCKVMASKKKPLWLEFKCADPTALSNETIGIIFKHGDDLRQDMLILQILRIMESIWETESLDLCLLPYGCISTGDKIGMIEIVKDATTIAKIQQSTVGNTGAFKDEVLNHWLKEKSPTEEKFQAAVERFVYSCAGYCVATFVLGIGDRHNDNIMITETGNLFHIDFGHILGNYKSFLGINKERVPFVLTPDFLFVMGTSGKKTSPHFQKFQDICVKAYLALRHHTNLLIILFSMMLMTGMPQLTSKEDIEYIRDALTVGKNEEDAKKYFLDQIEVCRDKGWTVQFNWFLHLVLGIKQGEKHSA
# [6] = molecular target: Serine/threonine-protein kinase mTOR (Homo sapiens, UniProt P42345); assay: Inhibition of mTOR (unknown origin)
# [7] = molecular target: Phosphatidylinositol 4,5-bisphosphate 3-kinase catalytic subunit alpha isoform (Mus musculus, UniProt P42337); assay: Inhibition of PI3Kalpha in IGF-1 stimulated mouse C2C12 cells incubated for 10 mins by AlphaLISA assay; type: cell-based
# Chain of Phosphatidylinositol 4,5-bisphosphate 3-kinase catalytic subunit alpha isoform (Mus musculus, UniProt P42337) (P42337 whole entry, canonical isoform): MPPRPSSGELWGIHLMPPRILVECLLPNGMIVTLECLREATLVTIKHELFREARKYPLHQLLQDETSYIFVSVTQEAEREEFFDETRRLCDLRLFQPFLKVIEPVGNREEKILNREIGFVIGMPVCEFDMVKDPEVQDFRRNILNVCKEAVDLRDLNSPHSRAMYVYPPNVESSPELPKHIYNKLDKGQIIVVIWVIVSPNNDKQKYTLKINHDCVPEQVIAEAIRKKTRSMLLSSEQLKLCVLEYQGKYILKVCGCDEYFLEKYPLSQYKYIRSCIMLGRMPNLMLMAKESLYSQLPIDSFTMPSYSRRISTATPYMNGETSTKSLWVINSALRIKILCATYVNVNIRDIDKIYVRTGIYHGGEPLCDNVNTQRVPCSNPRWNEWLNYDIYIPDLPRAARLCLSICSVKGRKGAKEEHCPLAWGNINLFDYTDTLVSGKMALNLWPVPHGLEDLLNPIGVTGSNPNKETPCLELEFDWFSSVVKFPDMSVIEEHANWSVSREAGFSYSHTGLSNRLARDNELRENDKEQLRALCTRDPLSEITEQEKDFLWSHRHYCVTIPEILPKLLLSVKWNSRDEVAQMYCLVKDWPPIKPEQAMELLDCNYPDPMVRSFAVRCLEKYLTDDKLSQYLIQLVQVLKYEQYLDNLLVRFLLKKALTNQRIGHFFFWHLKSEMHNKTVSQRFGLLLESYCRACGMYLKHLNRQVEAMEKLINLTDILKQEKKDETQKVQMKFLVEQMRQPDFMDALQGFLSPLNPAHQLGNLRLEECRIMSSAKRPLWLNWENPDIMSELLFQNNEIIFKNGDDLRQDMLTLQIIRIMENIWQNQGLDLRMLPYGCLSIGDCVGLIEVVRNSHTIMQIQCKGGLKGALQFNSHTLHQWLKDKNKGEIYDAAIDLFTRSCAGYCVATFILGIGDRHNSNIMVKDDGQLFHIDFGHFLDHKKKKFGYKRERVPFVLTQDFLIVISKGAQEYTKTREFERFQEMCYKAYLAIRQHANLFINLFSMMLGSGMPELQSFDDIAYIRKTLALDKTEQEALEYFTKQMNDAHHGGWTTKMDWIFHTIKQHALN
# [8] = molecular target: T2, Phosphatidylinositol 4,5-bisphosphate 3-kinase catalytic subunit beta isoform; assay: Inhibition of PI3Kbeta in LPA stimulated human PC-3 cells incubated for 10 mins by AlphaLISA assay; type: cell-based
# [9] = molecular target: Phosphatidylinositol 4,5-bisphosphate 3-kinase catalytic subunit gamma isoform (Mus musculus, UniProt Q9JHG7); assay: Inhibition of PI3Kgamma in C5a stimulated mouse RAW264.7 cells incubated for 10 mins by AlphaLisa assay; type: cell-based
# DOHH-2 = assay: Antiproliferative activity against human DOHH-2 cells assessed as cell growth inhibition incubated for 96 hrs by cell titer glo assay; type: functional, cell-based; conditions: DOHH-2, 96 h
# [10] = Solubility of the compound in PBS; type: physicochemical
# [11] = Plasma protein binding in mouse; type: ADME, cell-free; conditions: read-out: PPB (converted)
# [12] = Microsomal stability in mouse liver microsomes assessed as half life; type: ADME, Microsome
# [13] = Solubility of the compound in FaSSIF; type: physicochemical
# SU-DHL-6 = assay: Antiproliferative activity against human SU-DHL-6 cells assessed as cell growth inhibition incubated for 96 hrs by cell titer glo assay; type: functional, cell-based; conditions: SU-DHL-6, 96 h
# Pfeiffer [14] = assay: Antiproliferative activity against human Pfeiffer cells assessed as cell growth inhibition incubated for 96 hrs by cell titer glo assay; type: functional, cell-based
# SUD4 = assay: Antiproliferative activity against human SU-DHL-4 cells assessed as cell growth inhibition incubated for 96 hrs by cell titer glo assay; type: functional, cell-based; conditions: SU-DHL-4, 96 h
# JeKo-1 = assay: Antiproliferative activity against human JeKo-1 cells assessed as cell growth inhibition incubated for 96 hrs by cell titer glo assay; type: functional, cell-based; conditions: JeKo-1, 96 h
# Z-138 = assay: Antiproliferative activity against human Z138 cells assessed as cell growth inhibition incubated for 96 hrs by cell titer glo assay; type: functional, cell-based; conditions: Z-138, 96 h
# Rec1 = assay: Antiproliferative activity against human REC1 cells assessed as cell growth inhibition incubated for 96 hrs by cell titer glo assay; type: functional, cell-based; conditions: Rec1, 96 h
# Pfeiffer [15] = assay: Induction of apoptosis in human Pfeiffer cells assessed as viable […] cells at 2 uM incubated for 48 hrs by annexin V-FITC staining based flow cytometry (reference value: 81.14 %); type: functional
# Pfeiffer [16] = assay: Induction of apoptosis in human Pfeiffer cells assessed as early apoptotic cells at 2 uM incubated for 48 hrs by annexin V-FITC staining based flow cytometry (reference value: 4.16 %); type: functional
# Pfeiffer [17] = assay: Induction of apoptosis in human Pfeiffer cells assessed as late apoptotic cells at 2 uM incubated for 48 hrs by annexin V-FITC staining based flow cytometry (reference value: 7.87 %); type: functional
# Pfeiffer [18] = assay: Induction of apoptosis in human Pfeiffer cells assessed as necrotic cells at 2 uM incubated for 48 hrs by annexin V-FITC staining based flow cytometry (reference value: 6.62 %); type: functional
# Pfeiffer [19] = assay: Induction of apoptosis in human Pfeiffer cells assessed as viable […] cells at 10 uM incubated for 48 hrs by annexin V-FITC staining based flow cytometry (reference value: 81.14 %); type: functional
# Pfeiffer [20] = assay: Induction of apoptosis in human Pfeiffer cells assessed as early apoptotic cells at 10 uM incubated for 48 hrs by annexin V-FITC staining based flow cytometry (reference value: 4.16 %); type: functional
# Pfeiffer [21] = assay: Induction of apoptosis in human Pfeiffer cells assessed as late apoptotic cells at 10 uM incubated for 48 hrs by annexin V-FITC staining based flow cytometry (reference value: 7.87 %); type: functional
# Pfeiffer [22] = assay: Induction of apoptosis in human Pfeiffer cells assessed as necrotic cells at 10 uM incubated for 48 hrs by annexin V-FITC staining based flow cytometry (reference value: 6.62 %); type: functional
# Pfeiffer [23] = assay: Antitumor activity against human Pfeiffer cells xenografted in nude mouse assessed as tumor growth inhibition at 30 mg/kg, po BID for 21 days and measured twice weekly; type: functional; conditions: 504 h, time 21 day, read-out: TGI
# [24] = Toxicity in nude mouse xenografted with human Pfeiffer cells assessed as effect on body weight at 30 mg/kg, po BID for 21 days and measured twice weekly; type: organism-based; conditions: in vivo, 504 h, time 21 day
compound,measurement,setting,value
COc1cc(-c2cc3c(N[C@H]4CCN(C(=O)C5CCCCC5)C4)ncnc3s2)cnc1OC,IC50,[1],718 nM
same,IC50,[2],30 nM
CCC(=O)N1CC[C@H](Nc2ncnc3sc(-c4cnc(OC)c(C#N)c4)cc23)C1,IC50,[1],4030 nM
same,IC50,[2],60 nM
CCC(=O)N1CC[C@H](Nc2ncnc3sc(-c4cnc(OC)c(C)c4)cc23)C1,IC50,[1],6290 nM
same,IC50,[2],45 nM
CCC(=O)N1CC[C@H](Nc2ncnc3sc(-c4ccc(OC)c(OC)c4)cc23)C1,IC50,[1],589 nM
same,IC50,[2],21 nM
COc1cc(-c2cc3c(N[C@H]4CCN(C(=O)C5CC5)C4)ncnc3s2)cnc1OC,IC50,[1],154 nM
same,IC50,[2],4.7 nM
CCC(=O)N1CC[C@H](Oc2ncnc3sc(-c4cnc(OC)c(C#N)c4)cc23)C1,IC50,[1],7330 nM
same,IC50,[2],156 nM
CCC(=O)N1CC[C@H](Nc2ncnc3sc(-c4ccc(S(C)(=O)=O)cc4)cc23)C1,IC50,[1],> 10000 nM
same,IC50,[2],465 nM
CCCC(=O)N1CC[C@H](Nc2ncnc3sc(-c4cnc(OC)c(OC)c4)cc23)C1,IC50,[1],363 nM
same,IC50,[2],12 nM
COc1cc(-c2cc3c(N[C@H]4CCN(C(=O)C5CCCC5)C4)ncnc3s2)cnc1OC,IC50,[1],483 nM
same,IC50,[2],8.5 nM
CCC(=O)N1CC[C@H](Nc2ncnc3sc(-c4cnc(OC)nc4)cc23)C1,IC50,[1],2580 nM
same,IC50,[2],37 nM
COc1cc(-c2cc3c(N[C@H]4CCN(C(=O)C(C)(C)C)C4)ncnc3s2)cnc1OC,IC50,[1],793 nM
same,IC50,[2],53 nM
CCC(=O)N1CC[C@H](Nc2ncnc3sc(-c4cnc(OC)c(C(F)(F)F)c4)cc23)C1,IC50,[1],2060 nM
same,IC50,[2],103 nM
CCC(=O)N1CC[C@H](Nc2ncnc3sc(-c4ccc(F)c(C#N)c4)cc23)C1,IC50,[1],> 10000 nM
same,IC50,[2],1010 nM
CCC(=O)N1CC[C@H](Nc2ncnc3sc(-c4cccc(S(C)(=O)=O)c4)cc23)C1,IC50,[1],3070 nM
same,IC50,[2],128 nM
CCC(=O)N1CC[C@H](Nc2ncnc3c2CN(c2cnc(OC)c(C(F)(F)F)c2)CC3)C1 [LENIOLISIB],CLint scaled,[3],355 mL/min/kg
same,IC50,[1],75.5 nM
same,IC50,[4],363 nM
same,IC50,[5],902 nM
same,IC50,[6],> 10000 nM
same,IC50,[7],19600 nM
same,IC50,[8],2680 nM
same,IC50,[9],4040 nM
same,IC50,DOHH-2,29200 nM
same,solubility,[10],57.9 µM
same,fraction unbound,[11],0.066
same,half-life,[12],15.4 min
same,solubility,[13],77.6 µM
same,IC50,SU-DHL-6,770 nM
same,IC50,Pfeiffer [14],3750 nM
same,IC50,SUD4,8250 nM
same,IC50,JeKo-1,31700 nM
same,IC50,Z-138,31200 nM
same,IC50,Rec1,1280 nM
same,Activity,Pfeiffer [15],78.31%
same,Activity,Pfeiffer [16],5.7%
same,Activity,Pfeiffer [17],11.23%
same,Activity,Pfeiffer [18],4.76%
same,Activity,Pfeiffer [19],75.9%
same,Activity,Pfeiffer [20],5.53%
same,Activity,Pfeiffer [21],12.88%
same,Activity,Pfeiffer [22],5.69%
same,inhibition in vivo at 30 mg/kg,Pfeiffer [23],53.8%
same,Activity,[24],10%
